Several values for one entry are separate records, joined by “and”; a condition that tells them apart may be missing. Equal entries are not always repeated.
Tests used:
SYHT0H2 soybeans [1] = test: Greenhouse: Sequestrene 138Fe rate series, percent injury from HPPD-inhibitors at 7 DAT; assay type: in vivo, soybean; conditions: mesotrione 420, bicyclopyrone 200, tembotrione 368, topramezone 72 g/ha
Method: Effect of Sequestrene® 138Fe on Percent Injury from Various HPPD-inhibitors on SYHT0H2 Soybeans. Injury Assessed at Seven Days after Treatment (7 DAT)
SYHT0H2 soybeans are grown in 4×4-inch pots filled with a greenhouse potting mix. When the plants reach the V2-V3 growth stage, they are treated with an HPPD inhibitor applied alone or in a tank mixture with Sequestrene 138Fe at various rates ranging from 140 g product/ha (equivalent to 8.4 g iron/ha) to 2240 g product/ha (equivalent to 134 g iron/ha).

[2] = tested on: Velvetleaf (Abutilon theophrasti); test: Greenhouse weed control: HPPD inhibitors with or without Sequestrene 138Fe, velvetleaf; assay type: in vivo; conditions: percent velvetleaf control 19 DAT
Method: Effect of Tank Mix Applications of HPPD Inhibitors and Sequestrene® 138Fe on Velvetleaf Control. Percent Control Assessed 19 DAT
A greenhouse experiment is conducted to determine the effect of chelated iron on weed control in the greenhouse. Velvetleaf (Abutilon theophrasti) and common waterhemp (Amaranthus rudis) plants are grown in 4×4-inch pots filled with a greenhouse potting mix. When the plants reached the 2 to 3 inch height (2 to 3 leaf stage), they are sprayed with a reduced rate of an HPPD inhibitor alone or in a tank mix combination with Sequestrene 138Fe at 140 g/ha (equivalent to 8.4 g iron/hectare) or 280 g/ha (equivalent to 16.8 g iron/hectare). […] Observations on percent control are recorded 12, 19, and 25 days after treatment.

SYHT0H2 soybeans [3] = test: Greenhouse: water-soluble iron compounds safening mesotrione, maximum injury; conditions: mesotrione 420 g ai/ha, additive none; maximum injury of 6, 9, 16 days after treatment
Method: An experiment is conducted to look at the safening effect of a variety of water-soluble iron-containing compounds. SYHT0H2 soybean plants are grown in small pots filled with a greenhouse potting mix. […] In all cases, mesotrione was applied at 420 g ai/ha and all treatments contained liquid ammonium sulphate at 2.5% v/v and NIS at 0.25% v/v. The application rates of iron-containing compounds indicated are iron equivalent rates. […] Percent injury levels were assessed 6, 9, and 16 days after treatment. Data presented are maximum injury occurring from any of the treatments at any time during the experiment.

[4] = tested on: HPPD-tolerant soybean event SYHT04R; test: Glasshouse: post-emergence HPPD herbicide damage with or without Sequestrene 138Fe, 7 DAA; assay type: in vivo; conditions: isoxaflutole, tembotrione
Method: (§1) Safening of Various HPPD-inhibiting Herbicides in HPPD-tolerant Soybean Events SYHT04R and SYHT0H2
(§2) An experiment is performed to determine whether the addition of chelating iron to the spray formulation can mitigate foliar bleaching injury from the HPPD herbicides mesotrione, bicyclopyrone, tembotrione, isoxaflutole, topramezone and pyrasulfatole when applied post-emergence to the HPPD-tolerant soybean events SYHT04R and SYHT0H2.
(§3) Soybean plants are grown in a glasshouse (24° C. day, 18° C. night; 65% relative humidity; 16 hour photoperiod). Two replicates are utilised in respect of SYHT0H2 (growth stage V1-V3) and three replicates are utilised in respect of SYHT04R (growth stage V1 to V3). Spray applications are applied post-emergence at […]. Herbicide damage was assessed 7 DAA (Days After Application).

[5] = tested on: HPPD-tolerant soybean event SYHT0H2; test: as above; assay type: in vivo; conditions: isoxaflutole, tembotrione
Method: as §1, §2, §3

[6] = tested on: tobacco line over-expressing HPPD from Pseudomonas florescens; test: Transgenic tobacco herbicide damage, mesotrione with or without Sequestrene 138; assay type: in vivo, Nicotiana tabacum cv Samsun (tobacco)
Method: (§4) Effect of Iron Chelates in Mitigating Foliar Bleaching Injury from HPPD Inhibiting Herbicides Across Various Transgenic HPPD Tolerant Tobacco Events Over-expressing HPPD Genes from Different Origins
(§5) This experiment is carried out to determine whether iron chelates can mitigate the bleaching injury from HPPD inhibiting herbicides across various transgenic HPPD tolerant tobacco events over-expressing HPPD genes from different origins. These experiments are conducted using three distinct HPPD-overexpressing Nicotiana tabacum cv Samsun (tobacco) lines, one over-expressing wheat HPPD, one overexpressing an Avena HPPD and one over-expressing a HPPD from a bacterial source, Pseudomonas florescens. For each transgenic line, five identical clonal plants were sprayed with each herbicide treatment. Two untransformed clonal tobacco plants are also sprayed ([…]) with each herbicide treatment. Assessments are carried out 3, 7 and 14 days after herbicide application.
(§6) All scores represent average % herbicide damage. […] An equivalent safening effect is not observed when the same chemical treatments are applied to wild type plants.

[7] = tested on: tobacco line over-expressing wheat HPPD; test: as above; assay type: in vivo, Nicotiana tabacum cv Samsun (tobacco)
Method: as §4, §5, §6

[8] = tested on: tobacco line overexpressing Avena HPPD; test: as above; assay type: in vivo, Nicotiana tabacum cv Samsun (tobacco)
Method: as §4, §5, §6

[9] = Sequestrene 138Fe 1000 g/ha, g ai/ha: mesotrione 200, bicyclopyrone, pyrasulfatole 100, topramazone 50
[10] = Sequestrene 138Fe 1000 g/ha, g ai/ha: mesotrione 800, bicyclopyrone, pyrasulfatole 400, topramazone 200
[11] = no Sequestrene 138Fe, g ai/ha: mesotrione 200, bicyclopyrone, pyrasulfatole 100, topramazone 50
[12] = no Sequestrene 138Fe, g ai/ha: mesotrione 800, bicyclopyrone, pyrasulfatole 400, topramazone 200

CS(=O)(=O)c1ccc(C(=O)C2C(=O)CCCC2=O)c([N+](=O)[O-])c1 [Mesotrione, mesotrione]
% Injury (SYHT0H2 soybeans [1]; Sequestrene 138Fe 0 g/ha): 15% | % Injury (SYHT0H2 soybeans [1]; Sequestrene 138Fe 140 g/ha tank mix): 13% | % Injury (SYHT0H2 soybeans [1]; Sequestrene 138Fe 280 g/ha tank mix): 2% | % Injury (SYHT0H2 soybeans [1]; Sequestrene 138Fe 560 g/ha tank mix): 1% | % Injury (SYHT0H2 soybeans [1]; Sequestrene 138Fe 1120 g/ha tank mix): 0% | % Injury (SYHT0H2 soybeans [1]; Sequestrene 138Fe 2240 g/ha tank mix): 0% | % Injury ([2]; Sequestrene 138Fe 0 g/ha, g ai/ha: mesotrione 26, isoxaflutole 26, bicyclopyrone 50, tembotrione 46, pyrasulfatole 22, topramezone 18): 100% | % Injury ([2]; Sequestrene 138Fe 140 g/ha tank mix, mesotrione 26, isoxaflutole 26 g ai/ha): 100% | % Injury (SYHT0H2 soybeans [3]): 17% | Herbicide damage SYHT04R [4, 9]: 2 | Herbicide damage SYHT04R [4, 10]: 17 | Herbicide damage SYHT04R [4, 11]: 8 | Herbicide damage SYHT04R [4, 12]: 32 | Herbicide damage SYHT0H2 [5, 9]: 3 | Herbicide damage SYHT0H2 [5, 10]: 18 | Herbicide damage SYHT0H2 [5, 11]: 13 | Herbicide damage SYHT0H2 [5, 12]: 23 | % herbicide damage ([6]; Trt 2: mesotrione 100 gai/ha alone, 3DAA): 35% and 25% and 20% | % herbicide damage ([6]; Trt 2: mesotrione 100 gai/ha alone, 7DAA): 55% and 30% and 35% | % herbicide damage ([6]; Trt 2: mesotrione 100 gai/ha alone, 14DAA): 40% and 25% and 20% and 30% | % herbicide damage ([6]; Trt 4: mesotrione 50 gai/ha + Sequestrene 138 1000 g/ha, 7DAA): 0% | % herbicide damage ([6]; Trt 4: mesotrione 50 gai/ha + Sequestrene 138 1000 g/ha, 14DAA): 0% | % herbicide damage ([6]; Trt 5: mesotrione 100 gai/ha + Sequestrene 138 1000 g/ha, 3DAA): 10% and 5% | % herbicide damage ([6]; Trt 5: mesotrione 100 gai/ha + Sequestrene 138 1000 g/ha, 7DAA): 0% | % herbicide damage ([6]; Trt 6: mesotrione 150 gai/ha + Sequestrene 138 1000 g/ha, 3DAA): 5% and 15% and 10% | % herbicide damage ([6]; Trt 6: mesotrione 150 gai/ha + Sequestrene 138 1000 g/ha, 14DAA): 5% and 0% | % herbicide damage ([7]; Trt 7: mesotrione 200 gai/ha alone, 3DAA): 10% and 5% | % herbicide damage ([7]; Trt 7: mesotrione 200 gai/ha alone, 7DAA): 10% and 0% | % herbicide damage ([7]; Trt 7: mesotrione 200 gai/ha alone, 14DAA): 10% and 0% | % herbicide damage ([7]; Trt 8: mesotrione 300 gai/ha alone, 3DAA): 15% and 10% | % herbicide damage ([7]; Trt 9: mesotrione 400 gai/ha alone, 3DAA): 20% and 15% | % herbicide damage ([7]; Trt 9: mesotrione 400 gai/ha alone, 7DAA): 20% and 25% | % herbicide damage ([7]; Trt 10: mesotrione 200 gai/ha + Sequestrene 138 1000 g/ha, 3DAA): 0% and 5% | % herbicide damage ([7]; Trt 10: mesotrione 200 gai/ha + Sequestrene 138 1000 g/ha, 7DAA): 0% | % herbicide damage ([7]; Trt 11: mesotrione 300 gai/ha + Sequestrene 138 1000 g/ha, 3DAA): 0% and 5% and 10% | % herbicide damage ([7]; Trt 11: mesotrione 300 gai/ha + Sequestrene 138 1000 g/ha, 7DAA): 10% and 5% and 0% | % herbicide damage ([7]; Trt 12: mesotrione 400 gai/ha + Sequestrene 138 1000 g/ha, 3DAA): 10% and 0% | % herbicide damage ([7]; Trt 12: mesotrione 400 gai/ha + Sequestrene 138 1000 g/ha, 7DAA): 5% and 0% | % herbicide damage ([7]; Trt 12: mesotrione 400 gai/ha + Sequestrene 138 1000 g/ha, 14DAA): 10% and 5% | % herbicide damage ([8]; Trt 13: mesotrione 400 gai/ha alone, 3DAA): 55% and 45% and 50% and 60% and 40% | % herbicide damage ([8]; Trt 13: mesotrione 400 gai/ha alone, 7DAA): 70% and 65% | % herbicide damage ([8]; Trt 13: mesotrione 400 gai/ha alone, 14DAA): 65% and 45% and 50% | % herbicide damage ([8]; Trt 14: mesotrione 500 gai/ha alone, 3DAA): 55% and 60% and 65% | % herbicide damage ([8]; Trt 14: mesotrione 500 gai/ha alone, 7DAA): 75% and 70% | % herbicide damage ([8]; Trt 14: mesotrione 500 gai/ha alone, 14DAA): 70% and 65% and 60% | % herbicide damage ([8]; Trt 15: mesotrione 600 gai/ha alone, 7DAA): 55% and 75% and 78% | % herbicide damage ([8]; Trt 15: mesotrione 600 gai/ha alone, 14DAA): 40% and 65% and 50% and 70% | % herbicide damage ([8]; Trt 16: mesotrione 400 gai/ha + Sequestrene 138 1000 g/ha, 3DAA): 0% and 5% and 10% | % herbicide damage ([8]; Trt 16: mesotrione 400 gai/ha + Sequestrene 138 1000 g/ha, 7DAA): 15% and 10% | % herbicide damage ([8]; Trt 16: mesotrione 400 gai/ha + Sequestrene 138 1000 g/ha, 14DAA): 15% and 10% and 5%

— patent US10159254B2, “Weed control methods” (Syngenta Participations AG, priority 2013, dated 2018)
